Assay results taken from ChEMBL document CHEMBL1127103, “New indole derivatives as potent and selective serotonin uptake inhibitors” (Bioorg Med Chem Lett, 1993).

What was measured:
[1] = target: T1, Alpha-1 adrenergic receptor (Mus musculus, UniProt P97714+P97717+P97718); assay: Tested for its binding affinity against Alpha-1 adrenergic receptor; showed no appreciable affinity at concentration specified; format: protein assay
T1 sequence (P97714 whole entry): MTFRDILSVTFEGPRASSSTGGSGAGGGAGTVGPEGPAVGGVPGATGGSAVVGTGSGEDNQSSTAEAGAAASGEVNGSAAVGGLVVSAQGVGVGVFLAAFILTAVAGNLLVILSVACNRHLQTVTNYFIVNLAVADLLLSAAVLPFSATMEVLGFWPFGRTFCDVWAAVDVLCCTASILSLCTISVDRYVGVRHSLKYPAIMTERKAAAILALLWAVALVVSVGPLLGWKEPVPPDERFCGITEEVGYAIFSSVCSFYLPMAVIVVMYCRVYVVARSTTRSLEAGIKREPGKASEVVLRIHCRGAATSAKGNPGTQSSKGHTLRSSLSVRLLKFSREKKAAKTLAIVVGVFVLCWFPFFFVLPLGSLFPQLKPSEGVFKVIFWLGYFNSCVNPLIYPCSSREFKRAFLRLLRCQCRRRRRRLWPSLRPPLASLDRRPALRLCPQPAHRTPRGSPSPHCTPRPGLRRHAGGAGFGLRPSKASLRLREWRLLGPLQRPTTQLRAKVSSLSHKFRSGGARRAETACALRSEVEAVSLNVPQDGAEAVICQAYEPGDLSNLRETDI
T1 sequence (P97717 whole entry): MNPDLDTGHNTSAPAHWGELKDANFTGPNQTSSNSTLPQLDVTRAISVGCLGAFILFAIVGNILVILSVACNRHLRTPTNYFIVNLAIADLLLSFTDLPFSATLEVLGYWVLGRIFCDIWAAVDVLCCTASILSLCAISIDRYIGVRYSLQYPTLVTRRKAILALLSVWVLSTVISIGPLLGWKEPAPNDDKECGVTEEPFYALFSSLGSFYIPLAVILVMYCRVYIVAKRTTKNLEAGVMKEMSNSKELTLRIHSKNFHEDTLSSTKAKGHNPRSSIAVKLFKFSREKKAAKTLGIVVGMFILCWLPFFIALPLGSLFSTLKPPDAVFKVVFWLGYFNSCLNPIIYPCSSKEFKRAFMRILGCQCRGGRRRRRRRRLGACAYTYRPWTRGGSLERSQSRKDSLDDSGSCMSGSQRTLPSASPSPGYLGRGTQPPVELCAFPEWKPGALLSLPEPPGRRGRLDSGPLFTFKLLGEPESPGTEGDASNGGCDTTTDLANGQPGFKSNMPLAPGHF
T1 sequence (P97718 whole entry): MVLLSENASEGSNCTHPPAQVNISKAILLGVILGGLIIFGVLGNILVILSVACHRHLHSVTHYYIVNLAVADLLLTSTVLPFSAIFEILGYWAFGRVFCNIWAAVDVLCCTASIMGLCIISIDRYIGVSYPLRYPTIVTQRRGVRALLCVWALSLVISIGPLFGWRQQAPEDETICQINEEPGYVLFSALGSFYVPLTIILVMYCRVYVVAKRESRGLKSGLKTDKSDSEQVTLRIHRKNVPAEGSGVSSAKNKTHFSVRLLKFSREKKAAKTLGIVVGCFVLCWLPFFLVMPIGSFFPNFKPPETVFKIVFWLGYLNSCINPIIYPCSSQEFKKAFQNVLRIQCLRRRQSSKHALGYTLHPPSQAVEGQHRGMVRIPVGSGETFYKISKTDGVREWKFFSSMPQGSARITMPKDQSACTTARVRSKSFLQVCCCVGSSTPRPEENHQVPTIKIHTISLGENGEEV

D(2) dopamine receptor = D(2) dopamine receptor (Mus musculus, UniProt P61168); assay: Tested for its binding affinity against Dopamine receptor D2; showed no appreciable affinity at concentration specified
Chain of D(2) dopamine receptor (P61168 whole entry): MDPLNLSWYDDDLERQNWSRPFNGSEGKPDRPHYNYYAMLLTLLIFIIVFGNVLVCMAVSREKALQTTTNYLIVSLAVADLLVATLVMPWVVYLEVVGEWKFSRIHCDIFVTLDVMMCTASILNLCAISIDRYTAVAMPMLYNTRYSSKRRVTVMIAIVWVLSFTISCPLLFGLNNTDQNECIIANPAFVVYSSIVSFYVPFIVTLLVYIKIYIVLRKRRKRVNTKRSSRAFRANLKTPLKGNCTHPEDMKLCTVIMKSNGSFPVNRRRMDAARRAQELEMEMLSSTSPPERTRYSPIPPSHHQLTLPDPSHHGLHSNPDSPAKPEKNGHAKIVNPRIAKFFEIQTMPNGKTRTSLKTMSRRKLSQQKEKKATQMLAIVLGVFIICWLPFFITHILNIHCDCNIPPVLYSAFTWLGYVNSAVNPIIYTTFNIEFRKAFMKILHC

[2] = target: Muscarinic acetylcholine receptor; assay: Tested for its binding affinity against muscarinic receptor; showed no appreciable affinity at concentration specified; format: protein assay
[3] = target: Serotonin transporter (Rattus norvegicus); assay: Compound was evaluated for inhibition of 5-HT uptake by measuring its ability to inhibit [3H]paroxetine binding to rat cortical membranes
Mus musculus [4] = assay: Effective dose required for half maximal potentiation of head twitches observed with 5-HTP after oral administration (1 hr 30 min); format: functional
Mus musculus [5] = assay: Effective dose required for half maximal potentiation of head twitches observed with 5-HTP after subcutaneous administration (1 hr); format: functional; details: sc

SMILES | IC50 [1] [nM] | IC50 (D(2) dopamine receptor) [nM] | IC50 [2] [nM] | IC50 [3] [nM] | ED50 (Mus musculus [4]) [mg/kg] | ED50 (Mus musculus [5]) [mg/kg]
CN(CCN1CCC(Cc2c[nH]c3ccc(F)cc23)CC1)S(=O)(=O)c1ccccc1 | > 100 | > 100 | > 100 | 30 |  | 
O=C1CSc2ccccc2N1CCN1CCC(Cc2c[nH]c3ccc(F)cc23)CC1 | > 100 | > 100 | > 100 | 1.1 | > 20 | 
O=C1Nc2ccccc2S(=O)(=O)N1CCN1CCC(Cc2c[nH]c3ccc(F)cc23)CC1 | > 100 | > 100 | > 100 | 2.1 | > 20 | 
O=c1[nH]c2ccccc2c(=O)n1CCN1CCC(Cc2c[nH]c3ccc(F)cc23)CC1 | > 100 | > 100 | > 100 | 0.5 | 20 | 
O=C1Cc2ccccc2N1CCN1CCC(Cc2c[nH]c3ccc(F)cc23)CC1 | > 100 | > 100 | > 100 | 3.1 |  | 
CC1(C)CN(CCN2CCC(Cc3c[nH]c4ccc(F)cc34)CC2)C(=O)c2ccccc21 | > 100 | > 100 | > 100 | 3.8 | 20 | 
COC1=Nc2cccc3cccc(c23)N1CCN1CCC(Cc2c[nH]c3ccc(F)cc23)CC1 | > 100 | > 100 | > 100 | 22.6 |  | 
O=S(=O)(NCCN1CCC(Cc2c[nH]c3ccc(F)cc23)CC1)c1ccccc1 | > 100 | > 100 | > 100 | 6 | > 20 | 
C[Si]1(C)CN(CCN2CCC(Cc3c[nH]c4ccc(F)cc34)CC2)C(=O)c2ccccc21 | > 100 | > 100 | > 100 | 2.6 | > 20 | 
Cn1c(=O)c2ccccc2n(CCN2CCC(Cc3c[nH]c4ccc(F)cc34)CC2)c1=O | > 100 | > 100 | > 100 | 5.9 | 20 | 
O=C1CN(CCN2CCC(Cc3c[nH]c4ccc(F)cc34)CC2)S(=O)(=O)c2ccccc21 | > 100 | > 100 | > 100 |  | > 20 | 
O=S1(=O)c2ccccc2CN1CCN1CCC(Cc2c[nH]c3ccc(F)cc23)CC1 | > 100 | > 100 | > 100 | 1 | 7.2 | 4.5
O=C1Nc2cccc3cccc(c23)N1CCN1CCC(Cc2c[nH]c3ccc(F)cc23)CC1 | > 100 | > 100 | > 100 | 1.5 | 2 | 4
C[Si]1(C)CN(CCN2CCC(Cc3c[nH]c4ccc(F)cc34)CC2)S(=O)(=O)c2ccccc21 | > 100 | > 100 | > 100 |  |  | 
O=C1c2cccc3cccc(c23)C(=O)N1CCN1CCC(Cc2c[nH]c3ccc(F)cc23)CC1 | > 100 | > 100 | > 100 |  | 2.3 | 6.1
O=S1(=O)Nc2cccc3cccc(c23)N1CCN1CCC(Cc2c[nH]c3ccc(F)cc23)CC1 | > 100 | > 100 | > 100 | 12 |  | 
CN1c2cccc3cccc(c23)N(CCN2CCC(Cc3c[nH]c4ccc(F)cc34)CC2)S1(=O)=O | > 100 | > 100 | > 100 | 3.7 | > 20 | 
O=C1N(CCN2CCC(Cc3c[nH]c4ccc(F)cc34)CC2)c2ccccc2C12CC2 | > 100 | > 100 | > 100 | 4 | > 20 | 
CNCCC(Oc1ccc(C(F)(F)F)cc1)c1ccccc1 (stereo not drawn) [FLUOXETINE] |  |  |  |  |  | 6.3
O=S1(=O)N(CCN2CCC(Cc3c[nH]c4ccc(F)cc34)CC2)c2cccc3c2N1CCC3 [RP-68303] |  |  |  | 1.2 |  | 5.1
